# Experimental data from patent publication US20230135729A1, “COMPOUND WITH ANTI-SPORE ACTIVITY AND PHARMACEUTICAL COMPOSITION THEREOF” (priority 2020, published 2023).
# Read-outs that look alike come from different tables or passages of the source.
# What was measured:
# Assay type in all cases: cell-based
# [1] = system: spores of ATCC BBA1870 strain; assay: Inhibition of germination of C. difficile spores (MIC), strain ATCC BBA1870; conditions: Clostridioides difficile, ATCCBBA1870STRAIN, 1 h, read-out: MIC (minimum concentration that completely inhibits spore germination)
# Outline: (§1)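 Spores heat-activated for 30 min at 65° C and washed, then preincubated with compound (10 mM DMSO stock) in BHIS at 37° C. Germination was triggered with sodium taurocholate, and OD580 was read each minute for 60 min. Inhibition = 100% − germination rate, from final vs initial OD relative to germinant-only controls.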
# [2] = system: spores of ATCC 43255 strain; assay: Inhibition of germination of C. difficile spores (MIC), strain ATCC 43255; conditions: Clostridioides difficile, ATCC43255, 1 h, read-out: MIC (minimum concentration that completely inhibits spore germination)
# Outline: as §1
# [3] = system: spores of ATCC 630 strain; assay: Inhibition of germination of C. difficile spores (MIC), strain ATCC 630; conditions: Clostridioides difficile, ATCC630, 1 h, read-out: MIC (minimum concentration that completely inhibits spore germination)
# Outline: as §1
# [4] = strain 1870, sodium taurocholate as germinant, BHIS medium, 37° C., OD580 for 60 min
# [5] = strain 43255, sodium taurocholate as germinant, BHIS medium, 37° C., OD580 for 60 min
# [6] = strain 630, sodium taurocholate as germinant, BHIS medium, 37° C., OD580 for 60 min
SMILES,"MIC [1, 4] [µM]","MIC [2, 5] [µM]","MIC [3, 6] [µM]",MIC [1] [µM],MIC [2] [µM],MIC [3] [µM]
CC(C)[C@@H](NC(=O)C[C@@H](C)[C@H]1CC[C@H]2[C@@H]3C(=O)C[C@@H]4CC(=O)CC[C@]4(C)[C@H]3CC[C@]12C)c1ccc(C(=O)CCCCCCC(=O)O)s1 [Compound I-206],256,128,128,–,–,–
CC(C)[C@H](NC(=O)C[C@@H](C)[C@H]1CC[C@H]2[C@@H]3C(=O)C[C@@H]4CC(=O)CC[C@]4(C)[C@H]3CC[C@]12C)c1ccc(Cl)s1 [Compound I-76],> 256,> 256,> 256,–,–,–
CC(C)C(NC(=O)C[C@@H](C)[C@H]1CC[C@H]2[C@@H]3[C@H](O)C[C@@H]4CC(=O)CC[C@]4(C)[C@H]3CC[C@]12C)c1cccs1 (stereo partly drawn) [Compound I-134],2,2,2,–,–,–
CC[C@@H](NC(=O)C[C@@H](C)[C@H]1CC[C@H]2[C@@H]3C(=O)C[C@@H]4CC(=O)CC[C@]4(C)[C@H]3CC[C@]12C)c1ccc(S(=O)(=O)O)s1 [Compound I-74],16,16,16,–,–,–
C[C@H](CC(=O)N[C@H](C)c1cccs1)[C@H]1CC[C@H]2[C@@H]3C(=O)C[C@@H]4CC(=O)CC[C@]4(C)[C@H]3CC[C@]12C [Compound I-29],1,1,1,–,–,–
CCCCCCCCCCCCCC(NC(=O)C[C@@H](C)[C@H]1CC[C@H]2[C@@H]3C(=O)C[C@@H]4CC(=O)CC[C@]4(C)[C@H]3CC[C@]12C)c1cccs1 (stereo partly drawn) [Compound I-47],> 256,> 256,> 256,–,–,–
CC(C)[C@H](NC(=O)C[C@@H](C)[C@H]1CC[C@H]2[C@@H]3C(=O)C[C@@H]4CC(=O)CC[C@]4(C)[C@H]3CC[C@]12C)c1ccc(Br)s1 [Compound I-79],8,8,4,–,–,–
C[C@H](CC(=O)NCc1ccco1)[C@H]1CC[C@H]2[C@@H]3[C@@H](O)C[C@@H]4C[C@H](O)CC[C@]4(C)[C@H]3CC[C@]12C [Compound I-11],64,64,64,–,–,–
CCC(NC(=O)C[C@@H](C)[C@H]1CC[C@H]2[C@@H]3C(=O)C[C@@H]4CC(=O)CC[C@]4(C)[C@H]3CC[C@]12C)c1ccccc1 (stereo partly drawn) [Compound I-58],–,–,–,8,4,4
C[C@H](CC(=O)NCc1ccco1)[C@H]1CC[C@H]2[C@@H]3[C@H](O)C[C@@H]4C[C@H](O)CC[C@]4(C)[C@H]3C[C@H](O)[C@]12C [Compound I-17],64,32,32,–,–,–
C[C@H](CC(=O)NCc1ccco1)[C@H]1CC[C@H]2[C@@H]3C(=O)C[C@@H]4C[C@H](O)CC[C@]4(C)[C@H]3CC[C@]12C [Compound I-13],16,16,16,–,–,–
CC(C)[C@@H](NC(=O)C[C@@H](C)[C@H]1CC[C@H]2[C@@H]3[C@@H](O)C[C@@H]4CC(=O)CC[C@]4(C)[C@H]3CC[C@]12C)c1ccc(Cl)s1 [Compound I-164],32,32,32,–,–,–
CC(NC(=O)C[C@@H](C)[C@H]1CC[C@H]2[C@@H]3C(=O)C[C@@H]4CC(=O)CC[C@]4(C)[C@H]3CC[C@]12C)c1ccccc1 (stereo partly drawn) [Compound I-23],4,2,2,–,–,–
CC[C@@H](NC(=O)C[C@@H](C)[C@H]1CC[C@H]2[C@@H]3[C@H](OP(=O)(O)O)C[C@@H]4CC(=O)CC[C@]4(C)[C@H]3CC[C@]12C)c1ccc(Br)s1 [Compound I-192],64,64,64,–,–,–
CCCCCCCC(=O)O[C@@H]1C[C@@H]2CC(=O)CC[C@]2(C)[C@H]2CC[C@]3(C)[C@@H]([C@H](C)CC(=O)N[C@H](CC)c4ccc(Cl)s4)CC[C@H]3[C@H]12 [Compound I-183],256,128,128,–,–,–
CC(=O)O[C@@H]1C[C@@H]2CC(=O)CC[C@]2(C)[C@H]2CC[C@]3(C)[C@@H]([C@H](C)CC(=O)N[C@@H](c4ccc(Br)s4)C(C)C)CC[C@H]3[C@H]12 [Compound I-178],1,0.5,0.5,–,–,–
CC(C)C(NC(=O)C[C@@H](C)[C@H]1CC[C@H]2[C@@H]3[C@H](OS(=O)(=O)O)C[C@@H]4CC(=O)CC[C@]4(C)[C@H]3CC[C@]12C)c1ccc(Br)s1 (stereo partly drawn) [Compound I-113],1,0.5,1,–,–,–
CC[C@@H](NC(=O)C[C@@H](C)[C@H]1CC[C@H]2[C@@H]3[C@H](N)C[C@@H]4CC(=O)CC[C@]4(C)[C@H]3CC[C@]12C)c1ccc(Cl)s1 [Compound I-172],32,32,32,–,–,–
CC[C@@H](NC(=O)C[C@@H](C)[C@H]1CC[C@H]2[C@@H]3C(=O)C[C@@H]4C[C@H](OC)CC[C@]4(C)[C@H]3CC[C@]12C)c1ccc(Cl)s1 [Compound I-167],256,128,128,–,–,–
CC(=O)O[C@@H]1CC2=CC(=O)CC[C@]2(C)[C@H]2CC[C@]3(C)[C@@H]([C@H](C)CC(=O)N[C@@H](c4ccc(Cl)s4)C(C)C)CC[C@H]3[C@H]12 [I-158 -1],0.5,0.5,0.5,–,–,–
CC(C)C(NC(=O)C[C@@H](C)[C@H]1CC[C@H]2[C@@H]3C[C@H](O)[C@@H]4C[C@H](O)CC[C@]4(C)[C@H]3CC[C@]12C)c1cccs1 (stereo partly drawn) [Compound I-127],8,8,4,–,–,–
C[C@H](CC(=O)NC(c1cccs1)C1CCCC1)[C@H]1CC[C@H]2[C@@H]3C(=O)C[C@@H]4CC(=O)CC[C@]4(C)[C@H]3CC[C@]12C (stereo partly drawn) [Compound I-53],32,32,32,–,–,–
CC(C)C(NC(=O)C[C@@H](C)[C@H]1CC[C@H]2[C@@H]3[C@H](O)C[C@@H]4CC(=O)CC[C@]4(C)[C@H]3CC[C@]12C)c1ccc(S(=O)(=O)O)s1 (stereo partly drawn) [Compound I-101],32,32,32,–,–,–
CC(C)[C@@H](NC(=O)C[C@@H](C)[C@H]1CC[C@H]2[C@@H]3[C@H](O)CC4=CC(=O)C=C[C@]4(C)[C@H]3CC[C@]12C)c1ccc(Cl)s1 [Compound I-162-2],0.5,0.5,0.5,–,–,–
CC(C)[C@@H](NC(=O)C[C@@H](C)[C@H]1CC[C@H]2[C@@H]3[C@H](O)C[C@@H]4C[C@H](O)CC[C@]4(C)[C@H]3CC[C@]12C)c1ccc(Br)s1 [Compound I-140],1,1,1,–,–,–
C[C@H](CC(=O)NCc1nccs1)[C@H]1CC[C@H]2[C@@H]3[C@H](O)C[C@@H]4C[C@H](O)CC[C@]4(C)[C@H]3CC[C@]12C [Compound I-7],16,16,16,–,–,–
